In publication PMC5780263 (Xenobiotica; the fate of foreign compounds in biological …, 2017):

How the values were obtained:
CYP2A6 = target: T1, CYP2A6 (Homo sapiens, UniProt P11509); conditions: previous studies, ref Shimada et al., 2016a; cited from earlier work
T1 sequence (P11509 1-494): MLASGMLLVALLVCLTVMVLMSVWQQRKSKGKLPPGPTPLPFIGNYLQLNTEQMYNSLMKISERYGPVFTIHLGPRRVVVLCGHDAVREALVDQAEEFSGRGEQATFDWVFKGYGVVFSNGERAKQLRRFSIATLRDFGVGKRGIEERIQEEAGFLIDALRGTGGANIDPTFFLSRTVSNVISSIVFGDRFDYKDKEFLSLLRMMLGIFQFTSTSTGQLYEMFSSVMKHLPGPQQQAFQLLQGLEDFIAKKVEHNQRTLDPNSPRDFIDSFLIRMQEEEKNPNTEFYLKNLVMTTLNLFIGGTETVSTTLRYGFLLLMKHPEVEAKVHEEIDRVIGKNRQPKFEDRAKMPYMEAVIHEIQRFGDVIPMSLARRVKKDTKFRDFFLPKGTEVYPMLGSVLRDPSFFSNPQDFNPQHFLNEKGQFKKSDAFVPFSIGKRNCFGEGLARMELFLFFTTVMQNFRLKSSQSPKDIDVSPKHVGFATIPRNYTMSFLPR

[1] = test system: CYP1A1, 1A2, 1B1.1, 1B1.3, 2D6, 2E1, 2C9, and 3A4; test: Spectral binding titration with other purified human P450 enzymes; conditions: authors' assay conditions
CYP1B1.1 = target: T2, CYP1B1.1 (Homo sapiens, UniProt Q16678); type: in vitro ADME; conditions: 10 µM substrate, 37 °C, 20 min, HPLC-fluorescence
T2 sequence (Q16678 1-543): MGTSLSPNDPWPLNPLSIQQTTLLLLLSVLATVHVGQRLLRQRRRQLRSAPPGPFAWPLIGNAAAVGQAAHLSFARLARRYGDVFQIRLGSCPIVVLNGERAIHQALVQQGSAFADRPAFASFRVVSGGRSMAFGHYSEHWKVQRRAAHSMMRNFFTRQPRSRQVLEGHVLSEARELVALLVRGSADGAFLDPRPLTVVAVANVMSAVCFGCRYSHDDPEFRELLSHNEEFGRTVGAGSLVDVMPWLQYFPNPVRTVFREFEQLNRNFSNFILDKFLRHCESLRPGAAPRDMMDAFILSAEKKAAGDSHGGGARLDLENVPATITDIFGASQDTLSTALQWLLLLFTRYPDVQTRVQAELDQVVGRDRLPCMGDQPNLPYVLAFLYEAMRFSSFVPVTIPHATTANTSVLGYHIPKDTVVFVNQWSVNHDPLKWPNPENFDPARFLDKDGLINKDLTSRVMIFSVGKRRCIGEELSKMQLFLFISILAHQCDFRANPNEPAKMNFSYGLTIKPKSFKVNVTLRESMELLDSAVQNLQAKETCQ

CYP2A13.1 = target: T3, CYP2A13.1 (Homo sapiens, UniProt Q16696); type: in vitro ADME; conditions: 10 µM substrate, 37 °C, 20 min, b5 added, HPLC-fluorescence
T3 sequence (Q16696 31-494 limits assumed): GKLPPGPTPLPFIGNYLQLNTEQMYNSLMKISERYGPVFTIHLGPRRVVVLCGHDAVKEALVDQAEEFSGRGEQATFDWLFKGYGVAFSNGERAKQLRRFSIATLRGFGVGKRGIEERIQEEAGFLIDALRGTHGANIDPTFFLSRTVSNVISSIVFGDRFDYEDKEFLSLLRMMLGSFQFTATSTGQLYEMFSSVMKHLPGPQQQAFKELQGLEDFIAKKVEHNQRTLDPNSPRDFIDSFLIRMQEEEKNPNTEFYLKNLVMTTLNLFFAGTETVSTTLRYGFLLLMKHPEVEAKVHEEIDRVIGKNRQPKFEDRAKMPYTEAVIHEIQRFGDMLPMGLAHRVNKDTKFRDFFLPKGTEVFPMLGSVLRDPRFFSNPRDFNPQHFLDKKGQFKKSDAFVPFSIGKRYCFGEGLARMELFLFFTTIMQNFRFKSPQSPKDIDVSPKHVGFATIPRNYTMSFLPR

CYP1A1 = target: T4, CYP1A1 (Homo sapiens, UniProt P04798); type: in vitro ADME; conditions: 10 µM substrate, 37 °C, 20 min, HPLC-fluorescence
T4 sequence (P04798 1-512): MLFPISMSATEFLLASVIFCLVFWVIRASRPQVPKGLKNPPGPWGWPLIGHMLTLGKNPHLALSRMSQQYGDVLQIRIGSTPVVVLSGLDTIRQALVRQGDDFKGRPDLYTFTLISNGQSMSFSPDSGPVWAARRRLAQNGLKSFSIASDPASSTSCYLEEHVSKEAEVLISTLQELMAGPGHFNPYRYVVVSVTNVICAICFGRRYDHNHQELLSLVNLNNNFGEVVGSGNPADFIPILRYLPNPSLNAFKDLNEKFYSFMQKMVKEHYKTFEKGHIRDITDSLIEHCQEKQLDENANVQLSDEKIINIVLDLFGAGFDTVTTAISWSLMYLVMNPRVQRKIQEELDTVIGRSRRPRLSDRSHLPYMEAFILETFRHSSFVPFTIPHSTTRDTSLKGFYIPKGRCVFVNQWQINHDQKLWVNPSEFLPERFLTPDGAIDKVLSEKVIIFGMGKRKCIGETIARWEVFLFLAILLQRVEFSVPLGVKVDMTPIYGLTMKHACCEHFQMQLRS

SMILES	Type I binding spectra (CYP2A6)	Spectral changes [1]	Hydroxylated products formed (CYP1B1.1)	Hydroxylated products formed (CYP2A13.1)	Hydroxylated products formed (CYP1A1)
c1cc2ccc3cccc4ccc(c1)c2c34 [pyrene]	do not show detectable Type I binding spectra	–	–	–	–
O=[N+]([O-])c1ccc2ccc3cccc4ccc1c2c34 [1-nitropyrene]	do not show detectable Type I binding spectra	–	–	–	–
Clc1ccc2ccc3cccc4ccc1c2c34 [1-chloropyrene]	–	did not show any detectable spectral changes	only formed the 6-hydroxy product	catalyzed hydroxylation at the 8- and 3-positions	produced 8-, 6-, and 3-hydroxylated products at significant levels
CC(=O)c1ccc2ccc3cccc4ccc1c2c34 [1-acetylpyrene]	do not show detectable Type I binding spectra	–	–	–	–
